# Patent US11072627B2, “Uridine diphosphate derivatives, compositions and methods for treating neurodegenerative disorders” (Tufts University, priority 2011, dated 2021)
# pEC50: −log10 of the molar value. Entries after “also recorded” stand apart in the source; their conditions may differ. Read-outs that look alike come from different tables or passages of the source.
# Columns and labels:
# P2Y6 receptor [1] = target: T1, P2Y6 receptor (Homo sapiens, UniProt Q15077); test: Activation of P2Y6 receptor, receptor induced Ca2+ changes with fluo-4; type: cell-based; parameters: expressed in transfected cells; host or cells: 1321N1 human astrocytoma cells
# T1 sequence (Q15077 whole entry): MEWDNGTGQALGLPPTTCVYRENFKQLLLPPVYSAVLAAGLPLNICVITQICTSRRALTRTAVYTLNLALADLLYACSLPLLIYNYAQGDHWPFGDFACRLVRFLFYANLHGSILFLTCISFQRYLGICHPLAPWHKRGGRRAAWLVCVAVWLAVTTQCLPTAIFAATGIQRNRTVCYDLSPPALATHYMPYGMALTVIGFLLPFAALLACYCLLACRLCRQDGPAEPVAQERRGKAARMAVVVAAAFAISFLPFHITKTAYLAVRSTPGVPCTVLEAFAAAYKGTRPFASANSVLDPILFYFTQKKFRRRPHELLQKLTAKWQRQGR
# Procedure: (§1) Synthetic ligands were tested for activation of P2Y6 receptor by measuring receptor induced Ca^2+ changes with the fluorescent Ca^2+ indicator fluo-4. 1321N1 human astrocytoma cell lines either expressing P2Y2, P2Y4 or P2Y6 receptors were plated into 24-well plates. Two days after plating, fluorometric measurements were made and responses of cells to a serial dilution of ligands were determined. P2Y6 mediated Ca^2+ fluorescent change was determined by normalized accumulation of fluorescent change of 3 timepoints after ligand administration subtracted by value from ACSF control. Changes in fluorescent intensity were plotted corresponding to ligand concention in GraphPad. Dose-response curve and EC50 for each ligand was estimated using nonlinear curve fit and Sigmoidal dose-response analysis. […] The ability of the sodium salt of compound 5 to elevate Ca^2+ signals in P2Y6 expressing cells was attenuated by addition of the P2Y6 antagonist MRS2578.
# as §1, with “fluo-4, and results are shown in FIG. 10(A)-(K).” for “fluo-4.”
# PSAPP mice [2] = test: Postmortem immunohistochemistry of plaque load in cortex and hippocampus; type: in vivo, mouse; settings: for immunoreactivity of β1-40 (plaque load): i.p. for 4 and 6 consecutive days
# Excerpt: (§2) Heterozygous mutant (K670N/M671L) APP (50% C57B6, 50% SJL) transgenic mice were crossed with heterozygous mutant (A246E) PS-1 (50% C57B6, 50% SJL) transgenic mice to generate heterozygous PSAPP transgenic mice (also referred to as PS-1/APP or PSAPP+/+ mice), which refers to animals heterozygous for the PS-1 A246E transgene and the APP K670N/M671L transgene. Non-transgenic control animals were littermates (also referred to as PSAPP_−/− mice) generated in the breeding for PSAPP transgenic animals. Mouse genotype was determined by Polymerase Chain Reaction (PCR). Both male and female mice of 6-7 months old were used for the experiments below. All animal experiments were performed in accordance with the Tufts Animal Care and Use Committee and with national regulations and policies.
# Mice were perfused transcardially with 4% paraformaldehyde and 40 μm Coronal sections were collected. Sections were sequentially incubated in 0.3% H2O2 for 10 minutes, blocking solution for 2 hrs, blocking solution containing the primary antibody (rabbit anti-beta1-42; rabbit anti-beta1-40, from Chemicon International and rat anti-CD45) for 48 hours at 4° C., and blocking solution containing biotinylated antibody or fluorescently-labeled antibody for 2 hours at room temperature. Sections were visualized in a bright field microscope or a confocal microscope, and the optical density was obtained using MetaMorph software.
# After repeated imaging, brains were fixed and subjected to postmortem immunohistochemistry with amyloid beta specific antibodies β1-40 and β1-42 to evaluate the plaque load (area occupied by immunostaining of plaque) in cortex and hippocampus.
# PSB0474 was systemically administered to PSAPP mice via intraperitoneal injection for 2, 4 and 6 consecutive days. In one group, prior to evaluation and following to administration for 6 consecutive days, treatment was suspended for two weeks (6+2 weeks group). Brains were then fixed and plaque load was evaluated by immunostaining with the amyloid beta specific antibodies: β1-40 and β1-42. Representative images of plaque load in cortex and hippocampus from animals that received injections of PSB0474 according to the foregoing injection schedules are shown in FIG. 5(A)-(D). […] Whereas, when administration of PSB0474 was stopped for 2 weeks following six consecutive days of treatment (denoted as the 6+2 weeks group), β1-40 staining rebounded; although to a level lower than observed in mice treated with saline as a vehicle control. […]
# To generate these graphs showing plaque load, mice were euthanized, brain sections cut and antibodies directed against Aβ 42 were used to disclose Aβ plaques. […] The algorithm then calculated the percent area of the field of view occupied by the plaques.
# P2Y6 receptor [3] = target: T1, P2Y6 receptor; settings: cited from earlier work
# PSAPP mice [4] = test: Tolerability of increased dose of PSB0474; type: in vivo, mouse; settings: 1000× increase in dose
# PSAPP mice [5] = test: Contextual fear conditioning test; type: in vivo, mouse
# Excerpt: as §2
# On day one, animals were trained in a fear conditioning apparatus for a total of 7 minutes with a two-pairing paradigm of cue and mild foot shock (a 30-s acoustic-conditioned stimulus, 80 dB; a 2-s shock stimulus, 0.5 mA). To evaluate contextual fear learning, the animals were returned to the training context 24 hours post-training, and freezing behavior was scored for 5 minutes. Freezing behavior was monitored by MotorMonitor (Hamilton Kinder) and scored every 5 seconds.
# In this study, the fear conditioning associative learning paradigm was used as a rapid cognition assay for PSAPP mice. This study allowed us to probe cognitive function with a single training day followed in 24 hours by tests for contextual and cued fear learning. Contextual fear learning is dependent upon a brain area that has been implicated as a locus for cognitive decline in AD: the hippocampus. Two pairings of CS-US for fear conditioning were followed 24 hours later by testing for contextual and cued fear learning. Previous studies have reported that PSAPP animals appear to have a selective hippocampus-dependent impairment in associative learning following two pairings of conditioned stimuli for fear conditioning.
# This represents a decrease in the cognitive impairment observed in the untreated mice.
# PSAPP mice [6] = test: Soluble Abeta level detected with ELISA; type: in vivo, mouse; settings: UDP treatment
# PSAPP mice [7] = test: Hippocampal long-term potentiation (LTP) recording; type: in vivo, mouse
# Procedure: Hippocampal slices ([…] thick) were prepared from 6-month-old PSAPP mice. Baseline responses were obtained every 10 seconds and Input-output (I/O) curves, paired-pulse modification and LTP were successively measured. The stimulation intensity was set to a level that gives a value of 30% of the maximum obtained. LTP were induced by high frequency stimulation (HFS, 100 pulses at 100 Hz, four times) or by theta-burst stimulation (TBS, 10 bursts at 5 Hz, repeated 10 times in 15 s intervals).
# Accumulated evidence has shown that amyloid peptides naturally secreted or isolated from Alzheimer's brains impair synaptic plasticity, especially hippocampal long-term potentiation (Walsh et al., 2002). Therefore, we further performed LTP recordings in PASPP mice and investigated whether P2Y6 receptor-mediated plaque clearance affects synaptic plasticity. […] First, it was observed that LTP at the schaffer collateral synapse within the CA1 region was depressed in PSAPP mice, as compared with littermates (FIG. 8(A)).
# PSAPP mice [8] = test: Postmortem immunohistochemistry of plaque load in cortex and hippocampus; type: in vivo, mouse; settings: for decrease in plaque load: acute i.c.v. UDP
# PSAPP mice [9] = test: Two-photon in vivo imaging of amyloid plaques in barrel cortex; parameters: species or system mouse
# Excerpt: as §2
# In this study, PSAPP mice were anesthetized using isoflurane and a thin-skull preparation was used to minimize the surface damage. Amyloid plaques were visualized with methoxyX04 labeling and blood plasma was labeled with Rhodamine dextran to facilitate re-localization of the same imaging area. Stack images were obtained using a two-photon system (Prairie Technologies) with excitation at 850 nm. The emission was detected by external photomultiplier tubes (525/70; DLCP 575; 607/45 nm).
# Animals were anesthetized and immobilized in a stereotaxic frame. For each injection, 1 μl of 10 mM UDP or other suitable compounds in artificial cerebrospinal fluid (ACSF) as the vehicle were injected intraventricularly using the following coordinates: AP 0.2 mm, ML 1 mm, and DV 2.2 mm.
# To evaluate the effect of UDP on plaque burden, two-photon microscopy was used to assess the amyloid plaques in the barrel cortex in living PSAPP mice. Amyloid plaques were stained by systemically administered methoxy-X04. One day prior to imaging, PSAPP mice were injected with methoxyX04 to label the amyloid plaques. On the imaging day, to facilitate the re-location of the same imaging area, blood plasma was labeled with Rhodamine dextran. Images were obtained from the same start- and end-point to ensure the same image volume.
# The results were shown in a maximum intensity projection of a fluorescent stack containing 45 planes. Immediately after imaging, animals were injected with ACSF or UDP intracerebroventricularly (i.c.v.) and allowed to recover. On day 4, animals were subjected to a second period of imaging of the same regions studied on day 1 and the results are shown in FIG. 1(D)-(F). The similar pattern of angiopathy (shown by open arrows) indicated the same imaging area.
# P2Y4 receptor = target: T2, P2Y4 receptor (Homo sapiens, UniProt P51582); test: Ca2+ mobilizing effect in 1321N1 cells expressing P2Y4 (fluo-4); type: cell-based; settings: sodium salt; 1321N1 human astrocytoma cells expressing P2Y4
# T2 construct: expressed in transfected cells; host or cells: 1321N1 human astrocytoma cells
# T2 sequence (P51582 whole entry): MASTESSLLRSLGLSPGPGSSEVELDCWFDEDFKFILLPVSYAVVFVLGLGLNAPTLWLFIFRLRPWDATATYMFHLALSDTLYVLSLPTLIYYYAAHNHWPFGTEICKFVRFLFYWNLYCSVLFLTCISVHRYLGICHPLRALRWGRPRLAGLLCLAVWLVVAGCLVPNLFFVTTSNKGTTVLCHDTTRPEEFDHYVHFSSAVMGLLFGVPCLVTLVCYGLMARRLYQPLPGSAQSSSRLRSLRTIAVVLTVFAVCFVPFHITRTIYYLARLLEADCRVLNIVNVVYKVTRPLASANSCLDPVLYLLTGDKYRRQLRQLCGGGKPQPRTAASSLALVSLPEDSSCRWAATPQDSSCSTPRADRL
# Procedure: (§3) Synthetic ligands were tested for activation of P2Y6 receptor by measuring receptor induced Ca^2+ changes with the fluorescent Ca^2+ indicator fluo-4. 1321N1 human astrocytoma cell lines either expressing P2Y2, P2Y4 or P2Y6 receptors were plated into 24-well plates. Two days after plating, fluorometric measurements were made and responses of cells to a serial dilution of ligands were determined. P2Y6 mediated Ca^2+ fluorescent change was determined by normalized accumulation of fluorescent change of 3 timepoints after ligand administration subtracted by value from ACSF control. Changes in fluorescent intensity were plotted corresponding to ligand concention in GraphPad. Dose-response curve and EC50 for each ligand was estimated using nonlinear curve fit and Sigmoidal dose-response analysis. […]
# (§4) Synthetic ligands were tested for activation of P2Y6 receptor by measuring receptor induced Ca^2+ changes with the fluorescent Ca^2+ indicator fluo-4, and results are shown in FIG. 10(A)-(K). […] Two days after plating, fluorometric measurements were made and responses of cells to a serial dilution of ligands were determined. P2Y6 mediated Ca^2+ fluorescent change was determined by normalized accumulation of fluorescent change of 3 timepoints after ligand administration subtracted by value from ACSF control. […]
# P2Y2 receptor = target: T3, P2Y2 receptor (Homo sapiens, UniProt P41231); test: Ca2+ mobilizing effect in 1321N1 cells expressing P2Y2 (fluo-4); type: cell-based; settings: sodium salt; 1321N1 human astrocytoma cells expressing P2Y2
# T3 construct: expressed in transfected cells; host or cells: 1321N1 human astrocytoma cells
# T3 sequence (P41231 whole entry): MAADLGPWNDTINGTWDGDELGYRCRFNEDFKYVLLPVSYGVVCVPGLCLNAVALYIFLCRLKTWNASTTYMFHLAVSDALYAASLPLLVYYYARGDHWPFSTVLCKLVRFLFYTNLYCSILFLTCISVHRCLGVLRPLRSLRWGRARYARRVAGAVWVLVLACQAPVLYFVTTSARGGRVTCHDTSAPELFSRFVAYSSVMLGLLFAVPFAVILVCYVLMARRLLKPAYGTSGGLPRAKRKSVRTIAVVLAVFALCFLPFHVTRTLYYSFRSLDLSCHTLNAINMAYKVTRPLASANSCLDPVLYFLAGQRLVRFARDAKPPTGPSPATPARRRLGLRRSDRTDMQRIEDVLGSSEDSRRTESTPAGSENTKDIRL
# Procedure: as §3, §4
# [10] = acute i.c.v. UDP, barrel cortex, day 4 vs day 1, P<0.01
smiles,measurement,setting,value
S=C=Nc1cccc(NC(=S)NCCCCNC(=S)Nc2cccc(N=C=S)c2)c1 [MRS2578],effect of antagonist on ability of sodium salt of compound 5 to elevate Ca2+ signals,"P2Y6 receptor [1]; P2Y6 expressing cells, MRS2578 added",attenuated
"O=C(Cn1c(=O)ccn([C@@H]2O[C@H](COP(=O)(O)OP(=O)(O)O)[C@@H](O)[C@H]2O)c1=O)c1ccccc1 [PSB0474, 3-phenacyl-UDP]",β1-40 staining after stopping treatment,"PSAPP mice [2]; 6 consecutive days i.p., then stopped for 2 weeks (6+2 weeks group), level lower than saline control",rebounded
same,immunoreactivity of β1-40 (plaque load),PSAPP mice [2]; cortex,significantly decreased
same,effects on the efficacy endpoint at higher dose,"PSAPP mice [2]; higher dose of 1 mg/kg, one week daily treatment",smaller effects
same,immunoreactivity of β1-40 (plaque load),PSAPP mice [2]; hippocampus,significantly decreased
same,pEC50,P2Y6 receptor [3]; P2Y6 receptor agonist,7.15
same,selectivity for P2Y6 receptor,P2Y6 receptor [3],> 500 fold
same,detrimental effects to the animal,PSAPP mice [4],did not cause detrimental effects
same,memory deficit compared to vehicle treatment,"PSAPP mice [5]; FIG. 9C, one week treatment with 1 ug/kg",rescued the memory deficit
same,total freezing percentage in context test,"PSAPP mice [5]; chronic injection of PSB0474, two different doses",increased
"O=c1ccn([C@@H]2O[C@H](COP(=O)(O)OP(=O)(O)O)[C@@H](O)[C@H]2O)c(=O)[nH]1 [UDP, uridine diphosphate]",soluble Aβ40 level,PSAPP mice [6]; FIG. 4E,decreased
same,soluble Aβ42 level,PSAPP mice [6]; FIG. 4F,decreased
same,"field excitatory postsynaptic potential (fEPSP), last 15 min potentiation","PSAPP mice [7]; UDP treatment, comparable to level in littermates",significant increase
same,"LTP at schaffer collateral synapse, CA1","PSAPP mice [7]; acute UDP treatment vs ACSF, HFS",reversed this LTP deficit
same,decrease in plaque load,"PSAPP mice [8]; cortex, β1-40 antibody, p<0.05",60%
same,decrease in plaque load,"PSAPP mice [8]; cortex, β1-42 antibody, P<0.01",48%
same,decrease in plaque load,"PSAPP mice [8]; hippocampus, β1-40 antibody, p<0.01",62%
same,decrease in plaque load,"PSAPP mice [8]; hippocampus, β1-42 antibody, P<0.05",47%
same,freezing behavior compared to ACSF treatment,"PSAPP mice [5]; FIG. 7C, UDP-treatment 3 days prior to the test",significantly improved
same,freezing behavior during 5 minute-testing time,"PSAPP mice [5]; UDP treatment, during the first 4 minutes, not the last minute",increased freezing behavior
same,total freezing percentage,"PSAPP mice [5]; acute UDP i.c.v., contextual test, ACSF control 18%±3%",49%±5%
same,day 4/day 1 ratios of plaque load,"PSAPP mice [9]; FIG. 2D, UDP vs ACSF, barrel cortex",significant reductions
same,"day 4/day 1 ratios, number of plaques","PSAPP mice [9]; FIG. 2E, UDP vs ACSF, barrel cortex",significant reductions
same,reduction in plaque load,PSAPP mice [9]; [10],17.2%
same,reduction in the number of plaques,PSAPP mice [9]; [10],12.6%
same,reduction in cross-sectional area of individual identified plaques,"PSAPP mice [9]; acute i.c.v. UDP, second imaging session, P<0.01",18.2%
O=c1ccn([C@@H]2O[C@H](COP(=O)(O)OP(=O)(O)O)[C@H](O)C2O)c(=O)n1Cc1noc2ccccc12 (stereo partly shown) [compound 5],elevating Ca2+ levels in P2Y4 receptor expressing cells,P2Y4 receptor,not effective
same,Aβ plaque load (%) in the cortex vs vehicle control,"PSAPP mice [8]; FIG. 12A, β1-42 antibody, compound 5 i.p. 7 days",substantial decrease
same,Aβ plaque load (%) in the hippocampus vs vehicle control,"PSAPP mice [8]; FIG. 12B, β1-42 antibody, compound 5 i.p. 7 days",substantial decrease
same,elevating Ca2+ levels in P2Y2 receptor expressing cells,P2Y2 receptor,not effective
same,freezing behavior compared to the control treatment,"PSAPP mice [5]; FIG. 11, compound 5 prior to the test",significantly improved; also recorded: restored to a level equivalent to that observed in wildtype animals
same,total freezing percentage in the context test,"PSAPP mice [5]; compound 5 i.p. daily for 7 consecutive days, 1 ug/kg or 1 mg/kg",increased
same,elevating Ca2+ levels in cells expressing P2Y6 receptors,"P2Y6 receptor [1]; sodium salt, 1321N1 human astrocytoma cells expressing P2Y6",only effective
same,pEC50,"P2Y6 receptor [1]; sodium salt, 1321N1 human astrocytoma cells expressing P2Y6, fluo-4 Ca2+",7.92
